Patent US20040077639A1, “Methods for the treatment of respiratory diseases and conditions using a selective iNOS inhibitor” (priority 2002, published 2004)

Assays:
[1] = test system: iNOS activity in human primary airway epithelial cells; experiment: Nitrite in media of cytokine-treated human primary airway epithelial cells; format: cell-based; details: 50 ng/ml IL-1β, TNF-α and IFN-γ (cytomix), 24 h; FIG. 1; read-out: IC50 for inhibition of the increase in nitrite in the media
Procedure: Human primary airway epithelial cell cultures: Human primary airway epithelial cells were cultured as described previously (see Donnelly,L. E. and Barnes, P. J. Am J Respir Cell Mol.Biol 24:295-303 (2000)), and the amount of nitrite, the stable oxidation product of NO, in the cell culture media was measured using a modification of the spectrofluorometric method of Misko et al., Anal. Biochem. […] (1993).
The protein was evenly distributed throughout the cytoplasm in basal cells but clearly located beneath the cilia in the columnar, ciliated cells. Treatment of airway epithelial cells with 50 ng/ml of IL-1β, TNF-α and IFN-γ (cytomix) for 24 h caused an induction of iNOS protein and an increase in the accumulation of nitrite in cell culture media from 2.20±0.2 μM in the absence of cytomix, to 3.5±0.4 μM in the presence of cytomix.
Media was harvested and measured for nitrite content (FIG. 1). Cellular proteins were resolved on 3-8% tris-acetate polyacrylamide gels and immunoblotted for iNOS protein (FIG. 2).
Rather, as expected, it appears to result from inhibition of enzymatic activity.

[2] = test system: iNOS protein expression in human primary airway epithelial cells; experiment: Western blotting of iNOS from cultured epithelial cells; format: cell-based; details: cytomix-treated cells; FIG. 2
Procedure: Westem blotting of INOS from cultured epithelial cells: Following incubation with the cytokine mixture alone or with various concentrations of L-NIL, epithelial cells were lysed in 50 mM Tris/HCl, pH 7.4, containing 0.25 mM ethylene diaminotetraacetic acid, 0.5 mM phenylmethylsulfonyl fluoride, 5 μg/ml antipain, 5 μg/ml leupeptin and 5 μg/ml benzaminidine. The protein concentration was determined using the BioRad protein assay kit according to the manufacturer's instructions. Cell proteins were solubilized in sodium dodecyl sulfate polyacrylamide gel electrophoresis sample buffer ([…] Tris/HCl, pH 6.8, containing 10% v/v glycerol, 1% w/v SDS, 1% w/v β-mercaptoethanol, and 0.01% w/v bromophenol blue). The proteins (15 μg per lane) were resolved by electrophoresis in 3-8% (w/v) Tris-acetate SDS-polyacrylamide gels and transferred to Hybond-Enhanced Chemi-luminescence (ECL) nitro-cellulose membranes. Equal protein loading was determined by staining the blot with 0.1% (w/v) Ponceau S in 5% (v/v) acetic acid. The nitro-cellulose was then blocked overnight at 4° C. in 0.5M Tris-HCl,pH 7.4, containing 3% (w/v) normal goat serum, 1% (w/v) bovine serum albumin and 0.05% (v/v) Tween-20. […]
Media was harvested and measured for nitrite content (FIG. 1). […]

- IC50 [1]: ~5.7 µM
SMILES: CC(=N)NCCCC[C@H](N)C(=O)O [L-NIL]
- effect on iNOS expression as detected by immunoblotting [2]: did not affect
